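A five-concentration, 48-hour dose response in 96-well plates underlies each endpoint, interpolated linearly between surrounding concentrations. Abbreviation: GI50, concentration required for 50% inhibition of growth. Definition used: TGI = concentration required for complete inhibition of growth.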
Assays:
Test in all cases: NCI-60 cell line screen, 48 h
SK-OV-3 ovarian = system: SK-OV-3 ovarian
CAKI-1 renal = system: CAKI-1 renal
BT-549 breast = system: BT-549 breast
SR leukemia = system: SR leukemia
SK-MEL-28 melanoma = system: SK-MEL-28 melanoma
HT29 colon = system: HT29 colon
MDA-MB-435 = system: MDA-MB-435
SF-295 CNS = system: SF-295 CNS
NCI-H522 lung = system: NCI-H522 lung
SW-620 colon = system: SW-620 colon
MALME-3M melanoma = system: MALME-3M melanoma
MOLT-4 leukemia = system: MOLT-4 leukemia
SNB-19 CNS = system: SNB-19 CNS
NCI-H23 lung = system: NCI-H23 lung
PC-3 prostate = system: PC-3 prostate
HS 578T breast = system: HS 578T breast
CCRF-CEM leukemia = system: CCRF-CEM leukemia
UACC-62 melanoma = system: UACC-62 melanoma
RPMI-8226 leukemia = system: RPMI-8226 leukemia
DU-145 prostate = system: DU-145 prostate
NCI-H226 lung = system: NCI-H226 lung
OVCAR-4 ovarian = system: OVCAR-4 ovarian
HL-60(TB) leukemia = system: HL-60(TB) leukemia
SF-268 CNS = system: SF-268 CNS
UACC-257 melanoma = system: UACC-257 melanoma
HCT-116 colon = system: HCT-116 colon
MCF7 breast = system: MCF7 breast
M14 melanoma = system: M14 melanoma
SF-539 CNS = system: SF-539 CNS
786-0 renal = system: 786-0 renal
KM12 colon = system: KM12 colon
MDA-MB-468 breast = system: MDA-MB-468 breast
A549 NSCLC = system: A549 NSCLC
RXF 393 renal = system: RXF 393 renal
HOP-62 NSCLC = system: HOP-62 NSCLC
OVCAR-5 ovarian = system: OVCAR-5 ovarian
K-562 leukemia = system: K-562 leukemia
ACHN renal = system: ACHN renal
OVCAR-8 ovarian = system: OVCAR-8 ovarian
UO-31 renal = system: UO-31 renal
HCT-15 colon = system: HCT-15 colon
LOX IMVI melanoma = system: LOX IMVI melanoma
TK-10 renal = system: TK-10 renal
SK-MEL-5 melanoma = system: SK-MEL-5 melanoma
NCI-H460 lung = system: NCI-H460 lung
U251 CNS = system: U251 CNS
OVCAR-3 ovarian = system: OVCAR-3 ovarian
SK-MEL-2 melanoma = system: SK-MEL-2 melanoma
SNB-75 CNS = system: SNB-75 CNS
HCC-2998 colon = system: HCC-2998 colon
MDA-MB-231 breast = system: MDA-MB-231 breast
NCI/ADR-RES ovarian = system: NCI/ADR-RES ovarian
A498 renal = system: A498 renal
IGROV1 ovarian = system: IGROV1 ovarian
HOP-92 NSCLC = system: HOP-92 NSCLC
EKVX NSCLC = system: EKVX NSCLC
SN12C renal = system: SN12C renal
T-47D breast = system: T-47D breast
COLO 205 colon = system: COLO 205 colon

Compound: CCN(CC)CCOc1ccc(C(=C(C)c2ccccc2)c2ccc(OCCN(CC)CC)cc2)cc1
- GI50 (SK-OV-3 ovarian): 3.69 µM
- TGI (SK-OV-3 ovarian): 7.16 µM
- GI50 (CAKI-1 renal): 3.42 µM
- TGI (CAKI-1 renal): 7.07 µM
- GI50 (BT-549 breast): 4.46 µM
- TGI (BT-549 breast): 8.15 µM
- GI50 (SR leukemia): 2.44 µM
- TGI (SR leukemia): > 23 µM
- GI50 (SK-MEL-28 melanoma): 3.52 µM
- TGI (SK-MEL-28 melanoma): 6.65 µM
- GI50 (HT29 colon): 1.17 µM
- TGI (HT29 colon): 5.6 µM
- GI50 (MDA-MB-435): 3.02 µM
- TGI (MDA-MB-435): 6.48 µM
- GI50 (SF-295 CNS): 3.58 µM
- TGI (SF-295 CNS): 7.26 µM
- GI50 (NCI-H522 lung): 3.63 µM
- TGI (NCI-H522 lung): 7.85 µM
- GI50 (SW-620 colon): 3.1 µM
- TGI (SW-620 colon): 6.31 µM
- GI50 (MALME-3M melanoma): 3.61 µM
- TGI (MALME-3M melanoma): 6.73 µM
- GI50 (MOLT-4 leukemia): 4.71 µM
- TGI (MOLT-4 leukemia): 14.8 µM
- GI50 (SNB-19 CNS): 4.29 µM
- TGI (SNB-19 CNS): 8.7 µM
- GI50 (NCI-H23 lung): 4.27 µM
- TGI (NCI-H23 lung): 10.7 µM
- GI50 (PC-3 prostate): 3.59 µM
- TGI (PC-3 prostate): 8.25 µM
- GI50 (HS 578T breast): 4.08 µM
- TGI (HS 578T breast): 10.2 µM
- GI50 (CCRF-CEM leukemia): 2.37 µM
- TGI (CCRF-CEM leukemia): 6.61 µM
- GI50 (UACC-62 melanoma): 3.89 µM
- TGI (UACC-62 melanoma): 7.12 µM
- GI50 (RPMI-8226 leukemia): 3.51 µM
- TGI (RPMI-8226 leukemia): 8.8 µM
- GI50 (DU-145 prostate): 6 µM
- TGI (DU-145 prostate): > 23 µM
- GI50 (NCI-H226 lung): 5.92 µM
- TGI (NCI-H226 lung): > 23 µM
- GI50 (OVCAR-4 ovarian): 4.56 µM
- TGI (OVCAR-4 ovarian): 11.7 µM
- GI50 (HL-60(TB) leukemia): 4.36 µM
- TGI (HL-60(TB) leukemia): 22.1 µM
- GI50 (SF-268 CNS): 3.47 µM
- TGI (SF-268 CNS): 8.81 µM
- GI50 (UACC-257 melanoma): 4.25 µM
- TGI (UACC-257 melanoma): 8.08 µM
- GI50 (HCT-116 colon): 2.39 µM
- TGI (HCT-116 colon): 7.09 µM
- GI50 (MCF7 breast): 0.75 µM
- TGI (MCF7 breast): 4.18 µM
- GI50 (M14 melanoma): 3.34 µM
- TGI (M14 melanoma): 7.71 µM
- GI50 (SF-539 CNS): 3.35 µM
- TGI (SF-539 CNS): 6.4 µM
- GI50 (786-0 renal): 2.98 µM
- TGI (786-0 renal): 6.77 µM
- GI50 (KM12 colon): 3.47 µM
- TGI (KM12 colon): 7.22 µM
- GI50 (MDA-MB-468 breast): 1.84 µM
- TGI (MDA-MB-468 breast): 5.04 µM
- GI50 (A549 NSCLC): 4.54 µM
- TGI (A549 NSCLC): 13.3 µM
- GI50 (RXF 393 renal): 2.47 µM
- TGI (RXF 393 renal): 6.46 µM
- GI50 (HOP-62 NSCLC): 3.54 µM
- TGI (HOP-62 NSCLC): 7.31 µM
- GI50 (OVCAR-5 ovarian): 3.45 µM
- TGI (OVCAR-5 ovarian): 7.76 µM
- GI50 (K-562 leukemia): 0.968 µM
- TGI (K-562 leukemia): > 23 µM
- GI50 (ACHN renal): 3.63 µM
- TGI (ACHN renal): 6.97 µM
- GI50 (OVCAR-8 ovarian): 6.12 µM
- TGI (OVCAR-8 ovarian): 18.1 µM
- GI50 (UO-31 renal): 2.99 µM
- TGI (UO-31 renal): 5.97 µM
- GI50 (HCT-15 colon): 2.6 µM
- TGI (HCT-15 colon): 6.85 µM
- GI50 (LOX IMVI melanoma): 3.14 µM
- TGI (LOX IMVI melanoma): 6.25 µM
- GI50 (TK-10 renal): 3.17 µM
- TGI (TK-10 renal): 6.66 µM
- GI50 (SK-MEL-5 melanoma): 3.57 µM
- TGI (SK-MEL-5 melanoma): 6.78 µM
- GI50 (NCI-H460 lung): 3.57 µM
- TGI (NCI-H460 lung): 6.96 µM
- GI50 (U251 CNS): 3.69 µM
- TGI (U251 CNS): 7.44 µM
- GI50 (OVCAR-3 ovarian): 2.96 µM
- TGI (OVCAR-3 ovarian): 7.11 µM
- GI50 (SK-MEL-2 melanoma): 4.13 µM
- TGI (SK-MEL-2 melanoma): 7.85 µM
- GI50 (SNB-75 CNS): 3.07 µM
- TGI (SNB-75 CNS): 6.98 µM
- GI50 (HCC-2998 colon): 2.91 µM
- TGI (HCC-2998 colon): 6.14 µM
- GI50 (MDA-MB-231 breast): 3.04 µM
- TGI (MDA-MB-231 breast): 6.14 µM
- GI50 (NCI/ADR-RES ovarian): 4.71 µM
- TGI (NCI/ADR-RES ovarian): 13.9 µM
- GI50 (A498 renal): 2.73 µM
- TGI (A498 renal): 5.62 µM
- GI50 (IGROV1 ovarian): 4.27 µM
- TGI (IGROV1 ovarian): 9.79 µM
- GI50 (HOP-92 NSCLC): 1.76 µM
- TGI (HOP-92 NSCLC): 6.5 µM
- GI50 (EKVX NSCLC): 5.71 µM
- TGI (EKVX NSCLC): > 23 µM
- GI50 (SN12C renal): 3.52 µM
- TGI (SN12C renal): 7.22 µM
- GI50 (T-47D breast): 2.66 µM
- TGI (T-47D breast): 5.98 µM
- GI50 (COLO 205 colon): 3.36 µM
- TGI (COLO 205 colon): 6.89 µM
